The values below come from patent US10752900B2, “Oligonucleotides for modulating gene expression and uses thereof” (BIOGENERA S.P.A., priority 2012, dated 2020).

In the oligonucleotide strings, read from the 5' end, every base follows the letter of its sugar. An asterisk marks phosphorothioate; unmarked linkages are phosphodiester. Other units and linkages are bracketed, terminal groups are in braces. A string of capitals states the bases alone. d = 2'-deoxy (DNA)

The subject of one data set is MYCN gene. Kind of data set: QT-PCR, MYCN mRNA in RH30 cells. The class given is cell-based, human. Here is the method:
For the purpose of assessing the ability of the oligonucleotides of the present invention to modulate the expression of the target genes, their ability to reduce the quantity of messenger RNA was analyzed using the Real-Time PCR technique. For this purpose, use was made of 24-well plates, which were seeded with 5.0×10^4 cells with 0.3 ml of OPTI-MEM (GIBCO BRL) medium, 4% FBS and 2 mM L-glutammine (experiments in triplicate) per well. The cells were incubated for 24 hours at 37° C., in an atmosphere containing 5% CO2 to permit adherence to the base of the wells. Each oligonucleotide analyzed, except for the PNA oligonucleotides, was incubated beforehand with 2 μl of Lipofectamine 2000 (Invitrogen), with 0.3 mL of serum-free OPTI-MEM (GIBCO BRL) medium. For each well, the oligonucleotides were analyzed at the following final concentrations: • the antisense oligonucleotides siRNA and siRNA gapmer (i.e. the oligonucleotides containing one or more monomers of chemically modified nucleic acids at the 3' or 5' end, while in the central portion they have monomers of nucleic acids that have not been modified or have been modified at the level of the phosphodiester bond as a phosphorothioate bond) were used at 200 nM; • the antisense oligonucleotides containing phosphorothioate DNA monomers, the RNA antigene oligonucleotides (agRNA) and the oligonucleotides containing DNA monomers and LNA monomers were used at 10 μM; • the morpholino oligonucleotides were used at a concentration of 1 μM, and • the PNA oligonucleotides were administered at a concentration of 1 μM. The cells were treated with the oligonucleotides, adding FBS up to 4% 6 hours after administration of the same. After 24 hours the total RNA was extracted from each well and purified using the RNeasy Mini Kit (QIAGEN). Assays were performed on 8 cell lines obtained from 5 different human tumours which are correlated with MYCN expression, i.e.: • as a neuroblastoma model use was made of the cell lines Kelly, IMR-32 (where the MYCN gene is amplified and superexpressed) and SKNBE2c and LAN1 (where the MYCN gene is amplified and superexpressed and the p53 gene is mutated); • as a rabdomiosarcoma model use was made of the cell line RH30, where the MYCN gene is amplified and superexpressed; • as a Wilms' tumour model use was made of the cell line WiT49, where the MYCN gene is amplified and superexpressed; • as a retinoblastoma model use was made of the cell line Y79, where the MYCN gene is amplified and superexpressed; and • as a model of small cell lung cancer use was made of the cell line H69 where the MYCN gene is amplified and superexpressed. As a control, use was made of the same cell lines as listed above treated with sterile water instead of oligonucleotides. Each RNA sample was quantified (in duplicate) using a NanoDrop ND-1000 spectrophotometer (NanoDrop Technologies). The first strand of cDNA was produced using the cDNA Synthesis Kit for RT-PCR (Roche). For the cDNA synthesis reaction a total of 1 μg of RNA was used. For the real-time PCR, 10 ng of cDNA in a final volume of 20 μl was used with SYBR Green Master Mix 2× (Applied Biosystems) (3 identical experiments were conducted in triplicate). Two housekeeping genes were used as positive controls: GAPDH and beta-actin (ACTB). The conditions of the QT-PCR reaction were: 10 min at 95° C., 20 sec at 95° C., and 30 sec at 60° C., for 50 cycles. The PNAs having SEQ ID NO: 1-12 were also tested on different cell lines which overexpress MYCN (Kelly, SKNBE2c, RH30, […] 1 and H69). The results are shown in Table 6 and confirm the selectivity and specificity of the inhibition effect of the PNAs on the product of protein translation of the MYCN gene. Chimeric oligonucleotides comprising DNA monomers and LNA monomers and having the MYCN gene as their target were tested in vitro on alveolar rabdomyosarcoma cells (RH30). […]

Data set [1] has as its system rabdomyosarcoma cells (RH30). Kind of data set: Cellular proliferation assay (ATP-Lite), RH30 cells. It counts as cell-based, human. Here is the method: For the purpose of assessing the gene modulation ability of the oligonucleotides of the present invention, the effect of their administration on cell viability was determined. For this purpose 5×10^3 cells per well were seeded into 96-well cell culture plates (experiments conducted in triplicate) with 100 μl of OPTI-MEM (GIBCO BRL) medium containing 4% FBS and 2 mM of L-glutammine. The PNA oligonucleotides were administered at different concentrations (1 μM-2.5 μM-5 μM-10 μM) in order to observe a dose-effect relationship. As regards all the other oligonucleotides, the concentrations at which they administered are listed in the paragraph: The viability of the treated cells was determined at 48, 72, 96 and 168 hours after treatment. Cell viability was assessed by means of an ATP-Lite assay (Luminescence ATP Detection Assay System, PerkinElmer) and is reported as the ratio between the average signal of the treated wells compared to the average value of the wells of untreated control cells. The cells were processed following the instructions provided with the kit. The assays were performed on the same cell lines used to determine the levels of the MYCN gene messenger and listed in the paragraph: Treatments with Oligonucleotides-QT-PCR. The PNAs having SEQ ID NO: 1-12 were also tested on different cell lines which overexpress MYCN (Kelly, SKNBE2c, RH30, […] 1 and H69). The results are shown in Table 6 and confirm the selectivity and specificity of the inhibition effect of the PNAs on the product of protein translation of the MYCN gene. Chimeric oligonucleotides comprising DNA monomers and LNA monomers and having the MYCN gene as their target were tested in vitro on alveolar rabdomyosarcoma cells (RH30). […] The antisense oligonucleotides designed and synthesized by the Applicant according to the parameters described in the present invention were analyzed in vitro on rabdomyosarcoma cells (RH30).

Setting [2] is: Table 9, siRNA and siRNA gapmer used at 200 nM with Lipofectamine 2000.
[3] abbreviates: Table 9, siRNA and siRNA gapmer used at 200 nM.
Setting [4] is: Table 9, phosphorothioate DNA antisense used at 10 μM with Lipofectamine 2000.
Where [5] appears, read: Table 9, phosphorothioate DNA antisense used at 10 μM.
The mark [6] stands for this setting: Table 8, DNA-LNA oligonucleotides used at 10 μM with Lipofectamine 2000.
[7] abbreviates: Table 8, DNA-LNA oligonucleotides used at 10 μM.

Turning to “SEQ ID NO: 28: double-stranded siRNA against MYCN, sense UGAUGAAGAGGAAGAUGAA, antisense SEQ ID NO: 59 (antisense UUCAUCUUCCUCUUCAUCA; listed as RNA, chemistry not given here)”, the “mRNA inhibition (%)” value in the data set on MYCN gene (setting [2]) is 78%. Besides, the “Cell Prolif. (%)” value in data set [1] (setting [3]) came out at 35%.

On to “SEQ ID NO: 32: phosphorothioate DNA antisense oligonucleotide CAGGGTGTCCTCTCCGGA against MYCN (antisense dC*dA*dG*dG*dG*dT*dG*dT*dC*dC*dT*dC*dT*dC*dC*dG*dG*dA)”, for which the “mRNA inhibition (%)” value in the data set on MYCN gene (setting [4]) is given as 45%. In addition, the “Cell Prolif. (%)” value in data set [1] (setting [5]) is reported as 65%.

For “SEQ ID NO: 25: single-stranded chimeric DNA-LNA oligonucleotide ATGCCGGGCATGATCT against MYCN (DNA at AG, LNA at CT, backbone and methylation of C not given here)”, the “mRNA inhibition (%)” value in the data set on MYCN gene (setting [6]) amounted to 24%. For the same substance, the “Cell Prolif. (%)” value in data set [1] (setting [7]) was found to be 78%.

As for “SEQ ID NO: 34: double-stranded chimeric RNA / 2′-Fluoro siRNA against MYCN, sense CAGGAAGAUGAAGAGGAAGUU, antisense SEQ ID NO: 63 (antisense GUUCCUCUUCAUCUUCCUCUU; RNA with some 2'-fluoro monomers, positions not given here)”, the “mRNA inhibition (%)” value in the data set with MYCN gene (setting [2]) was found to be 59%. For the same substance, the “Cell Prolif. (%)” value in data set [1] (setting [3]) worked out at 52%.

Consider “SEQ ID NO: 26: double-stranded siRNA against MYCN, sense UGAAGAUGAUGAAGAGGAA, antisense SEQ ID NO: 57 (antisense UUCCUCUUCAUCAUCUUCA; listed as RNA, chemistry not given here)”, for which the “mRNA inhibition (%)” value in the data set with MYCN gene (setting [2]) is 82%. Moreover, in data set [1] (setting [3]), the “Cell Prolif. (%)” value is 28%.

As for “SEQ ID NO: 29: double-stranded siRNA against MYCN, sense GAGGAAGAUGAAGAGGAAG, antisense SEQ ID NO: 60 (antisense CUUCCUCUUCAUCUUCCUC; listed as RNA, chemistry not given here)”, in the data set on MYCN gene (setting [2]), the “mRNA inhibition (%)” value is listed as 85%. Further, the “Cell Prolif. (%)” value in data set [1] (setting [3]) worked out at 28%.

As for “SEQ ID NO: 27: double-stranded siRNA against MYCN, sense GAUGAUGAAGAGGAAGAUG, antisense SEQ ID NO: 58 (antisense CAUCUUCCUCUUCAUCAUC; listed as RNA, chemistry not given here)”, the “mRNA inhibition (%)” value with MYCN gene (setting [2]) is 70%. The “Cell Prolif. (%)” value in data set [1] (setting [3]) was 43%.

For “SEQ ID NO: 31: phosphorothioate DNA antisense oligonucleotide CGTGGAGCAGCTCGGCAT against MYCN (antisense dC*dG*dT*dG*dG*dA*dG*dC*dA*dG*dC*dT*dC*dG*dG*dC*dA*dT)”, the “mRNA inhibition (%)” value in the data set with MYCN gene (setting [4]) turned out to be 34%. In data set [1] (setting [5]), the “Cell Prolif. (%)” value is listed as 73%.

For “SEQ ID NO: 30: double-stranded siRNA against MYCN, sense GGAAGAUGAAGAGGAAGAA, antisense SEQ ID NO: 61 (antisense UUCUUCCUCUUCAUCUUCC; listed as RNA, chemistry not given here)”, in the data set on MYCN gene (setting [2]), the “mRNA inhibition (%)” value is 81%. Also, the “Cell Prolif. (%)” value in data set [1] (setting [3]) is 30%.

Take “SEQ ID NO: 24: single-stranded chimeric DNA-LNA oligonucleotide ATGCCGGGCATGATCT against MYCN (DNA at CT, LNA at AG, backbone and methylation of C not given here)”: the “mRNA inhibition (%)” value in the data set with MYCN gene (setting [6]) is reported as 23%. In addition, the “Cell Prolif. (%)” value in data set [1] (setting [7]) was 75%.

With “SEQ ID NO: 36: double-stranded chimeric RNA / arabinoside RNA siRNA against MYCN, sense CAGGAAGAUGAAGAGGAAGAA, antisense SEQ ID NO: 65 (antisense GUUCCUCUUCAUCUUCCUCAA; arabinoside modifications, further chemistry not given here)”, in the data set on MYCN gene (setting [2]), the “mRNA inhibition (%)” value came out at 69%. For the same substance, the “Cell Prolif. (%)” value in data set [1] (setting [3]) was determined as 35%.
